Laboratory results reported in patent US20140018537A1, “GPR119 AGONIST” (NIPPON CHEMIPHAR CO., LTD., priority 2008, published 2014).

Tests used:
human GPR119 = target: T1, human GPR119 (Homo sapiens, UniProt Q8TDV5); test: Intracellular cAMP increase in human GPR119 introduced cells (HitHunter cAMP XS+ Assay); format: cell-based; details: for EC50: Table 17, method similar to Example 86, hGPR119 stable cells, intracellular cAMP; for GPR119 agonist effect (in words): hGPR119 introduced cells, cAMP
T1 construct: expressed in transfected cells
T1 sequence (Q8TDV5 1-335): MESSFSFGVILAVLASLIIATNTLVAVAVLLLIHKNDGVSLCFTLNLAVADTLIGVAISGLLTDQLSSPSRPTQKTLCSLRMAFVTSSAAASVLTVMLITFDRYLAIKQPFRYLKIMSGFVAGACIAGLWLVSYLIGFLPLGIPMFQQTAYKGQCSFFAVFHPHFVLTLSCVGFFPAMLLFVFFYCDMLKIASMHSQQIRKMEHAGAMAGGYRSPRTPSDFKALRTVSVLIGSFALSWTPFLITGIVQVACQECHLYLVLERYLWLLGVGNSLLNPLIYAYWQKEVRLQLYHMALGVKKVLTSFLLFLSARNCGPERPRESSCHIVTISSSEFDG
Text: The GPR119 agonist effect was studied by measuring the effect of an analyte on increase of intracellular amount of cAMP in human GPR119 introduced cells. The testing method is described below.
(1) Construction of the Stable Cell Line Expressing Human G Protein-Coupled-Receptor 119 (hGPR119) Human GPR119 gene (NM 178471) is purchased from American Type Culture Collection (ATCC No. 10807349). Hind III site-added forward side primer ([…]: sequence No. 1) and Apa I site-added reverse side primer ([…]: sequence No. 2) are designed. The target gene is amplyfied by a polymerase chain reaction (PCR) method using KOD-Plus-Ver. 2 (TOYOBO #KOD-211). PCR is conducted by repeating three steps consisting of the step of 98° C.-10 seconds, the step of 55° C.-30 seconds, and the step of 68° C.-1 minute and 10 seconds in 35 cycles. The amplified PCR product is inserted into pcDNA5/FRT/TO (Invitrogen #V6520-20) plasmid. Cells, which can constantly express the target gene with tetracycline, are constructed using Flp-In T-REx-systen (invitorogen).
(2) Measurement of Intracellular Cyclic Adenosine Monophosphate (cAMP)
The hGPR119 introduced cells prepared in (1) are plated on a 96-well plate using Dulbecco's Modified Eagle Medium containing heat-inactived 10% fetal bovine serum. After incubation of 24 hours, tetracyclin (invitrogen #Q10019) is added to the culture medium to induce hGPR119 gene expression. After further incubation of 24 hours, the cells are stimulated with 0.5 mM 3-ISOBUTYL-1-METHYLXANTHINE (Sigma #17018) phosphate buffer containing the analyte at 37° C. for 30 minutes. The amount of the intracellular cAMP is measured by using FLUOstar Optima (BMG LABTECH) according to the protocol of HitHunter™ cAMP XS+Assay (GE Healthcare #90007503) to give the agonist activity of the analyte to the GPR119 receptor.
(1) Construction of the Stable Cell Line Expressing Human G-Protein Coupled Receptor 119 (hGPR119) hGPR119 gene (NM 178471) was purchased from American Type Culture Collection (ATCC No. 10807349). The forward primer that was added a HindIII site ([…] (sequence number 1)), and the reverse primer that was added an ApaI site ([…] (sequence number 2)) were designed, the target gene was amplified by polymerase chain reaction (PCR) using a KOD-Plus-Ver.2 (TOYOBO #KOD-211). PCR was repeated 3 steps (98° C. for 10 sec, 55° C. for 30 sec, 68° C. for 1 min 15 sec) by 35 cycles. Amplified PCR product was inserted in pcDNA5/FRT/TO (Invitrogen #V6520-20), and the stable cell line that expresses target gene when induced with tetracycline was created using the Flp-In T-Rex system (Invitrogen).
(2) Measuring Method of Intracellular Cyclic Adenosine Monophosphate (cAMP) hGPR119 stable cells made by above-mentioned (1) were plated on 96 well plates in Dulbecco's Modified Eagle Medium containing 10% heat-inactivated FBS. After 24 hours, the hGPR119 expression was induced by adding medium containing tetracycline (Invitrogen #Q10019) and incubating for another 24 hours. Following incubation, cells were stimulated by 0.5 mM 3-ISOBUTYL-1-METHYLXANTHINE (Sigma #17018) phosphate buffered saline containing test compound for 30 minutes at 37° C. Agonist activity of test compound to the GPR119 receptor was estimated by measuring the intracellular cAMP concentration using a Fluostar optima plate reader (BMG LABTECH) according to the manufacturer's protocol of the HitHunter™ cAMP XS+Assay (GE Healthcare #90007503).
The examination was performed by the method similar to Example 86 (Pharmacological experiment 1)-(1), -(2).

Structure (SMILES) | melting point [°C] | EC50 (human GPR119) [nM] | GPR119 agonist effect (in words) (human GPR119)
CCOC(=O)c1ccc(OCc2ccc(C3CCN(C(=O)OC(C)(C)C)CC3)cn2)cc1F [Example 9, tert-Butyl 4-[2-(4-ethoxycarbonyl-3-fluorophenoxymethyl)pyridin-5-yl]piperidine-1-carboxylate] | 92 to 95 |  | 
CC(C)(C)OC(=O)N1CCC(c2ccc(COc3ccc(S(C)(=O)=O)c(F)c3)nc2)CC1 [Example 18, tert-Butyl 4-[2-(3-fluoro-4-methanesulfonylphenoxymethyl)pyridin-5-yl]piperidine-1-carboxylate] |  | 85.4 | 
CC(C)(C)OC(=O)N1CCC(c2ccc(COc3ccc(S(N)(=O)=O)cc3)nc2)CC1 [Example 21, tert-Butyl 4-[2-(4-sulfamoylphenoxymethyl)pyridin-5-yl]piperidine-1-carboxylate] |  | 59.3 | 
COc1cc(S(C)(=O)=O)ccc1OCc1ccc(C2CCN(C(=O)OC(C)(C)C)CC2)cn1 [Example 26, tert-Butyl 4-[2-(4-methanesulfonyl-2-methoxyphenoxymethyl)pyridin-5-yl]piperidine-1-carboxylate] | 135 to 138 |  | 
CC(C)(C)OC(=O)N1CCC(c2ccc(COc3cccc([N+](=O)[O-])c3)nc2)CC1 [Example 30, tert-Butyl 4-[2-(3-nitrophenoxymethyl)pyridin-5-yl]piperidine-1-carboxylate] | 94 to 96 |  | 
CC(C)(C)OC(=O)N1CCC(c2ccc(COc3ccc([N+](=O)[O-])cc3)nc2)CC1 [Example 33, tert-Butyl 4-[2-(4-nitrophenoxymethyl)pyridin-5-yl]-piperidine-1-carboxylate] | 149 to 150 |  | 
CC(C)(C)OC(=O)N1CCC(c2ccc(COc3ccc(NS(C)(=O)=O)cc3)nc2)CC1 [Example 35, tert-Butyl 4-[2-(4-methanesulfonylaminophenoxymethyl)pyridin-5-yl]piperidine-1-carboxylate] | 171 to 173 |  | 
CCOC(=O)N1CCC(c2ccc(COc3ccc(S(C)(=O)=O)cc3)nc2)CC1 [Example 43, Ethyl 4-[2-(4-methanesulfonylphenoxymethyl)pyridin-5-yl]piperidine-1-carboxylate] | 119 to 121 |  | 
CC(C)COC(=O)N1CCC(c2ccc(COc3ccc(S(C)(=O)=O)cc3)nc2)CC1 [Example 44, Isobutyl 4-[2-(4-methanesulfonylphenoxymethyl)pyridin-5-yl]piperidine-1-carboxylate] | 114 to 117 |  | 
CC(C)(C)CC(=O)N1CCC(c2ccc(COc3ccc(S(C)(=O)=O)cc3)nc2)CC1 [Example 46, 1-[4-[2-(4-Methanesulfonylphenoxymethyl)pyridin-5-yl]piperidin-1-yl]-3,3-dimethylbutan-1-one] | 140 to 142 |  | 
CCCc1cnc(N2CCC(c3ccc(COc4ccc(S(C)(=O)=O)cc4)nc3)CC2)nc1 [Example 49, 2-[4-[2-(4-Methanesulfonylphenoxymethyl)pyridin-5-yl]piperidin-1-yl]-5-propylpyrimidine] | 164 to 166 |  | 
CCc1cnc(N2CCC(c3ccc(COc4ccc(-n5cnnn5)cc4)nc3)CC2)nc1 [Example 51, 5-Ethyl-2-[4-[2-[4-(tetrazol-1-yl)phenoxymethyl]pyridin-5-yl]piperidin-1-yl]pyrimidine] |  | 257 | 
CC(C)(C)OC(=O)N1CCC(c2ccc(CCc3ccc(S(C)(=O)=O)cc3)nc2)CC1 [Example 79, tert-Butyl 4-[2-[2-(4-methanesulfonylphenyl)ethyl]pyridin-5-yl]piperidine-1-carboxylate] |  | 142 | 
CC(C)(C)OC(=O)N1CCC(c2ccc(CSc3ccc(S(C)(=O)=O)cc3)nc2)CC1 [Example 84, tert-Butyl 4-[2-(4-methanesulfonylphenylthiomethyl)pyridin-5-yl]piperidine-1-carboxylate] |  | 128 | 

Second part, the compound after the results:

melting point [°C] | EC50 (human GPR119) [nM] | GPR119 agonist effect (in words) (human GPR119) | Structure (SMILES)
 | 54.7 |  | CC(C)(C)OC(=O)N1CCC(c2ccc(COc3ccc(S(C)(=O)=O)cc3F)nc2)CC1 [Example 12, tert-Butyl 4-[2-(2-fluoro-4-methanesulfonylphenoxymethyl)pyridin-5-yl]piperidine-1-carboxylate]
 | 34 |  | CC(C)(C)OC(=O)N1CCC(c2ccc(COc3ccc(-n4cnnn4)cc3)nc2)CC1 [Example 17, tert-Butyl 4-[2-[4-(tetrazol-1-yl)phenoxymethyl]pyridin-5-yl]piperidine-1-carboxylate]
 | 24 |  | Cc1cc(S(C)(=O)=O)ccc1OCc1ccc(C2CCN(C(=O)OC(C)(C)C)CC2)cn1 [Example 22, tert-Butyl 4-[2-(4-methanesulfonyl-2-methylphenoxymethyl)pyridin-5-yl]piperidine-1-carboxylate]
 | 21.2 | excellent GPR119 agonist effect | CC(C)(C)OC(=O)N1CCC(c2ccc(COc3ccc(S(C)(=O)=O)cc3Cl)nc2)CC1 [Example 25, tert-Butyl 4-[2-(2-chloro-4-methanesulfonylphenoxymethyl)pyridin-5-yl]piperidine-1-carboxylate]
 | 80.6 |  | CC(C)(C)OC(=O)N1CCC(c2ccc(COc3ccc(-n4cnnn4)cc3F)nc2)CC1 [Example 37, tert-Butyl 4-[2-[2-fluoro-4-(tetrazol-1-yl)phenoxymethyl]pyridin-5-yl]piperidine-1-carboxylate]
 | 29.3 |  | CC(C)(C)OC(=O)N1CCC(c2cnc(COc3ccc(S(C)(=O)=O)cc3)c(Cl)c2)CC1 [Example 71, tert-Butyl 4-[3-chloro-2-(4-methanesulfonylphenoxymethyl)pyridin-5-yl]piperidine-1-carboxylate]
 | 48 |  | CC(C)(C)OC(=O)N1CCC(c2cnc(COc3ccc(S(C)(=O)=O)cc3)c(C(F)(F)F)c2)CC1 [Example 73, tert-Butyl 4-[2-(4-methanesulfonylphenoxymethyl)-3-trifluoromethylpyridin-5-yl]piperidine-1-carboxylate]
 | 22.4 |  | CC(C)(C)OC(=O)N1CCC(c2cnc(COc3ccc(S(C)(=O)=O)cc3)c(F)c2)CC1 [Example 75, tert-Butyl 4-[3-fluoro-2-(4-methanesulfonylphenoxymethyl)pyridin-5-yl]piperidine-1-carboxylate]
 | 39.2 |  | Cc1cc(C2CCN(C(=O)OC(C)(C)C)CC2)cnc1COc1ccc(S(C)(=O)=O)cc1Br [Example 81, tert-Butyl 4-[2-(2-bromo-4-methanesulfonylphenoxymethyl)-3-methylpyridin-5-yl]piperidine-1-carboxylate]
 | 58.8 |  | Cc1cc(S(C)(=O)=O)ccc1OCc1ncc(C2CCN(C(=O)OC(C)(C)C)CC2)cc1C [Example 82, tert-Butyl 4-[2-(4-methanesulfonyl-2-methylphenoxymethyl)-3-methylpyridin-5-yl]piperidine-1-carboxylate]
 | 21.9 | excellent GPR119 agonist effect | Cc1cc(C2CCN(C(=O)OC(C)(C)C)CC2)cnc1COc1ccc(-n2cnnn2)cc1F [Example 83, tert-Butyl 4-[2-[2-fluoro-4-(tetrazol-1-yl)phenoxymethyl]-3-methylpyridin-5-yl]piperidine-1-carboxylate]
